Test results published in BindingDB's records for PubMed 33822624 (Ocean University of China, 2021).

Target: TCF7L2 (Homo sapiens)
Assay: Inhibition of beta-catenin/Tcf4 (unknown origin) in human SW480 cells assessed as reduction in cyclin D1 level qRT-PCR analysis

IC50: 4.2 µM
Compound: CC[C@H](C)[C@H](NC(=O)[C@H]1Cc2cn(nn2)CCCC[C@H](NC(=O)[C@H](CC(C)C)NC(=O)[C@H](CO)NC(=O)[C@H](CCCNC(=N)N)NC(=O)[C@H](CCC(=O)O)NC(=O)[C@H](CCCNC(=N)N)NC(=O)[C@H](Cc2cnc[nH]2)NC(=O)[C@H]2Cc3cn(nn3)CCCC[C@H](NC(=O)[C@H](CO)NC(=O)[C@H](CC(C)C)NC(C)=O)C(=O)N[C@@H](CCC(=O)O)C(=O)N[C@@H](CCC(N)=O)C(=O)N[C@@H](CC(C)C)C(=O)N2)C(=O)N[C@@H]([C@@H](C)O)C(=O)N[C@@H](CC(C)C)C(=O)N[C@@H](CCCNC(=N)N)C(=O)N1)C(=O)N[C@@H](CCC(N)=O)C(=O)N[C@@H](CCCNC(=N)N)C(=O)N[C@@H](CC(C)C)C(=O)N[C@@H](CC(C)C)C(=O)N[C@@H](Cc1ccccc1)C(N)=O
